Among the data in ChEMBL document CHEMBL2203217, “Prohormone-substrate peptide sequence recognition by peptidylglycine α-amidating monooxygenase and its reflection in increased glycolate inhibitor potency” (Bioorg Med Chem Lett, 2012) are IC50 values, retold here.

In assay [1] the target is T1, Peptidyl-glycine alpha-amidating monooxygenase (Homo sapiens, UniProt P19021).
T1 sequence (P19021 whole entry): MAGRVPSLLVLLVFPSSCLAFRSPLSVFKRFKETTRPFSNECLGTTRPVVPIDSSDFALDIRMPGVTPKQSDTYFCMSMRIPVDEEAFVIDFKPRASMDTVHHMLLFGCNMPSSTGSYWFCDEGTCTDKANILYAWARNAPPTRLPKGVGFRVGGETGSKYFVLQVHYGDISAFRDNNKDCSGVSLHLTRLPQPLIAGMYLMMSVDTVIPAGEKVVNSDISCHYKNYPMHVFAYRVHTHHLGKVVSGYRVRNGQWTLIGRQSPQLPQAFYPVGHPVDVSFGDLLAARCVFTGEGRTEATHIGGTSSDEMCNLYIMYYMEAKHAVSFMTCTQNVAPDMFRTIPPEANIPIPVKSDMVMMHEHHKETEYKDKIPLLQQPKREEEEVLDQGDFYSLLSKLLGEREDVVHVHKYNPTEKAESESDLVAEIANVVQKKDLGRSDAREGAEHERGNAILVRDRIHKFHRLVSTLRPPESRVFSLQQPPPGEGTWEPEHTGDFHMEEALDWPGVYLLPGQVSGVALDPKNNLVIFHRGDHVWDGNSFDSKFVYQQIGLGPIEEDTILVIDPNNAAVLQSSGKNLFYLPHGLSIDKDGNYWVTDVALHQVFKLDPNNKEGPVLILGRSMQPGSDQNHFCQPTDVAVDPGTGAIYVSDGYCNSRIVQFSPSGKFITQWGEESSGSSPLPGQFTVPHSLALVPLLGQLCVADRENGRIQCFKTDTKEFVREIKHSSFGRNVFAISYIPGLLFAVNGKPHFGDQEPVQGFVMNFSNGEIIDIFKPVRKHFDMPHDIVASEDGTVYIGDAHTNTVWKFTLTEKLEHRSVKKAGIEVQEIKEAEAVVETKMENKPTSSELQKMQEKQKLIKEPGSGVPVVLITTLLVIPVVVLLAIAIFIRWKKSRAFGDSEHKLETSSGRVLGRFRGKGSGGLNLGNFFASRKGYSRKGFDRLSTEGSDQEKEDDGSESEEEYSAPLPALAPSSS
Kind of assay: Competitive inhibition of secreted PAM in human DMS53 cell culture medium using as(R)-Tyr-(S)-Val-Gly as substrate after 2 hrs by HPLC analysis. On the set-up: species or system DMS-53.

In assay [2] the target is T1, Peptidyl-glycine alpha-amidating monooxygenase. Kind of assay: Competitive inhibition of PAM in human DMS53 cells using as(R)-Tyr-(S)-Val-Gly as substrate after 2 hrs by HPLC analysis. Format: cell-based, DMS-53.

Structures are written as SMILES.

For orientation: IC50 means the concentration needed to halve the response being measured. `N[C@@H](Cc1ccccc1)C(=O)OCC(=O)O`: the values for the half-maximal inhibitory concentration (IC50) in assay [1] and in assay [2] were 1600 µM and 1100 µM, respectively.
On to `O=C(O)COC(=O)[C@@H]1CCCN1`, for which the IC50 is 500 µM in assay [1] and 600 µM in assay [2].
